Drawing on PubChem BioAssay AID1259407 (Chemical Carcinogenesis Research Information System (CCRIS), 2018), this text covers mutagenic call for eight compounds.

The source made the active and inactive calls. No rule for the calls is given here.

This data set relates to CCRIS mutagenicity, Ames/micronucleus/aberration tests. Put plainly: CCRIS mutagenicity studies.
Where [1] appears, read: Test System: AMES SALMONELLA TYPHIMURIUM, Strain/Indicator: TA98, Metabolic Activation: NONE, Method: STANDARD PLATE.
Where [2] appears, read: Test System: AMES SALMONELLA TYPHIMURIUM, Strain/Indicator: TA100, Metabolic Activation: NONE, Method: STANDARD PLATE.
[3] abbreviates: Test System: AMES SALMONELLA TYPHIMURIUM, Strain/Indicator: TA98, Metabolic Activation: RAT, LIVER, S-9, AROCLOR 1254, Method: STANDARD PLATE.
The mark [4] stands for this setting: Test System: AMES SALMONELLA TYPHIMURIUM, Strain/Indicator: TA100, Metabolic Activation: RAT, LIVER, S-9, AROCLOR 1254, Method: STANDARD PLATE.
Setting [5] is: Test System: AMES SALMONELLA TYPHIMURIUM, Strain/Indicator: TA1537, Metabolic Activation: NONE, Method: STANDARD PLATE.
Setting [6] is: Test System: AMES SALMONELLA TYPHIMURIUM, Strain/Indicator: TA1537, Metabolic Activation: RAT, LIVER, S-9, AROCLOR 1254, Method: STANDARD PLATE.

Regarding `CCOC(=O)c1cc(Cc2ccc(N)c(C(=O)OCC)c2)ccc1N`, the mutagenic call (Test System: AMES SALMONELLA TYPHIMURIUM, Strain/Indicator: TA98, Metabolic Activation: NONE, Method: PREINCUBATION) is “inactive; negative”; the mutagenic call (Test System: AMES SALMONELLA TYPHIMURIUM, Strain/Indicator: TA98, Metabolic Activation: RAT, LIVER, S-9, PCB, Method: PREINCUBATION) was “inactive; negative”; the mutagenic call (Test System: AMES SALMONELLA TYPHIMURIUM, Strain/Indicator: TA100, Metabolic Activation: NONE, Method: PREINCUBATION) was “inactive; negative”.
For `[N-]=[N+]=NC[C@@H](O)[C@H](O)[C@H](O)[C@@H](O)C(=O)O`, the mutagenic call is, setting by setting: under setting [1], “inactive; negative”; under setting [2], “active; positive”.
As for `CNc1ccc(NCCO)c2c1C(=O)c1ccccc1C2=O`, the mutagenic call by setting is: under setting [1], “inactive; negative”; under setting [3], “active; positive”; under setting [2], “inactive; negative”; under setting [4], “inactive; negative”; (Test System: AMES SALMONELLA TYPHIMURIUM, Strain/Indicator: TA102, Metabolic Activation: NONE, Method: STANDARD PLATE) “inactive; negative”; (Test System: AMES SALMONELLA TYPHIMURIUM, Strain/Indicator: TA102, Metabolic Activation: RAT, LIVER, S-9, AROCLOR 1254, Method: STANDARD PLATE) “active; positive”. For the same compound, the mutagenic call is, setting by setting: (Test System: AMES SALMONELLA TYPHIMURIUM, Strain/Indicator: TA104, Metabolic Activation: NONE, Method: STANDARD PLATE) “inactive; negative”; under setting [5], “inactive; negative”; under setting [6], “active; positive”; (Test System: AMES SALMONELLA TYPHIMURIUM, Strain/Indicator: TA1538, Metabolic Activation: NONE, Method: STANDARD PLATE) “inactive; negative”; (Test System: MOUSE LYMPHOMA, Strain/Indicator: L5178Y (TK+/TK-), Metabolic Activation: NONE, Method: SUSPENSION PLATE) “active; positive”; (Test System: MOUSE LYMPHOMA, Strain/Indicator: L5178Y (TK+/TK-), Metabolic Activation: NONE, Method: SUSPENSION/PLATE) “active; positive”. Further, where the note is “Test System: MOUSE LYMPHOMA, Strain/Indicator: L5178Y (TK+/TK-), Metabolic Activation: RAT, LIVER, S-9, AROCLOR 1254, Method: SUSPENSION PLATE”, the mutagenic call is “active; positive”.
In the case of `CCCC(=O)Nc1snc2ccc(Cl)cc12`, the mutagenic call runs as follows: under setting [2], “inactive; negative”; (Test System: AMES SALMONELLA TYPHIMURIUM, Strain/Indicator: TA100, Metabolic Activation: S-9, Method: STANDARD PLATE) “inactive; negative”; under setting [5], “inactive; negative”; (Test System: AMES SALMONELLA TYPHIMURIUM, Strain/Indicator: TA1537, Metabolic Activation: S-9, Method: STANDARD PLATE) “inactive; negative”.
As to `CC(=O)Nc1ccc(-c2ccc(N)cc2)cc1`, the mutagenic call (Test System: AMES SALMONELLA TYPHIMURIUM, Strain/Indicator: TA1538, Metabolic Activation: GUINEA PIG, LIVER, HEPATOCYTES, Method: PREINCUBATION) was “active; positive”; the mutagenic call (Test System: AMES SALMONELLA TYPHIMURIUM, Strain/Indicator: TA1538, Metabolic Activation: GUINEA PIG, LIVER, S-9, ACETYL-COA (0.1 OR 1 MILLIMOLAR), Method: PREINCUBATION) is “active; positive”; the mutagenic call (Test System: AMES SALMONELLA TYPHIMURIUM, Strain/Indicator: TA1538, Metabolic Activation: GUINEA PIG, LIVER, S-9, Method: PREINCUBATION) is “active; positive”; the mutagenic call (Test System: AMES SALMONELLA TYPHIMURIUM, Strain/Indicator: TA1538, Metabolic Activation: HAMSTER, LIVER, HEPATOCYTES, Method: PREINCUBATION) was “active; positive”; the mutagenic call (Test System: AMES SALMONELLA TYPHIMURIUM, Strain/Indicator: TA1538, Metabolic Activation: HAMSTER, LIVER, S-9, ACETYL-COA (0.1 OR 1 MILLIMOLAR), Method: PREINCUBATION) was “active; positive”; the mutagenic call (Test System: AMES SALMONELLA TYPHIMURIUM, Strain/Indicator: TA1538, Metabolic Activation: HAMSTER, LIVER, S-9, Method: PREINCUBATION) is “active; positive”. Besides, the mutagenic call runs as follows: (Test System: AMES SALMONELLA TYPHIMURIUM, Strain/Indicator: TA1538, Metabolic Activation: RAT, LIVER, HEPATOCYTES, Method: PREINCUBATION) “active; positive”; (Test System: AMES SALMONELLA TYPHIMURIUM, Strain/Indicator: TA1538, Metabolic Activation: RAT, LIVER, S-9, ACETYL-COA (0.1 OR 1 MILLIMOLAR), Method: PREINCUBATION) “active; positive”; (Test System: AMES SALMONELLA TYPHIMURIUM, Strain/Indicator: TA1538, Metabolic Activation: RAT, LIVER, S-9, Method: PREINCUBATION) “active; positive”; (Test System: Ames Salmonella typhimurium, Strain/Indicator: TA102, Metabolic Activation: None, Method: Preincubation) “inactive; negative”; (Test System: Ames Salmonella typhimurium, Strain/Indicator: TA102, Metabolic Activation: Rat, liver, S-9, Aroclor 1254, 4%, Method: Preincubation) “active; positive”.
Regarding `Cc1cc2c3ccccc3cc3ccc4cccc1c4c32`, the mutagenic call was “active; positive” (Test System: AMES SALMONELLA TYPHIMURIUM, Strain/Indicator: TA100, Metabolic Activation: RAT, INTACT HEPATOCYTES, AROCLOR 1254, Method: PREINCUBATION) and “active; positive” (Test System: AMES SALMONELLA TYPHIMURIUM, Strain/Indicator: TA100, Metabolic Activation: RAT, NADPH-FORTIFIED HOMOGENIZED HEPATOCYTES, AROCLOR 1254, Method: PREINCUBATION).
On to `CN(C)c1ccc2cc3ccc(N(C)C)cc3nc2c1`, for which the mutagenic call runs as follows: under setting [3], “active; positive”; under setting [4], “active; positive”; under setting [6], “active; positive”; (Test System: CHINESE HAMSTER OVARY, Strain/Indicator: CHO-K1-BH4 (HGPRT)/6-THIOGUANINE, Metabolic Activation: S-9, Method: SUSPENSION/PLATE) “active; positive”; (Test System: E. COLI, Strain/Indicator: WP2, Metabolic Activation: NONE, Method: PREINCUBATION) “inactive; negative”; (Test System: MOUSE LYMPHOMA, Strain/Indicator: L5178Y (TK+/TK-), Metabolic Activation: S-9, Method: SUSPENSION/PLATE) “active; positive”.
Take `C=CCSS(=O)CC=C` (stereo not drawn): the mutagenic call runs as follows: (End Point: IN VITRO CHROMOSOMAL ABERRATIONS, Test System: HUMAN PERIPHERAL BLOOD LYMPHOCYTES, Metabolic Activation: NONE) “inactive; negative”; (End Point: IN VITRO CHROMOSOMAL ABERRATIONS, Test System: HUMAN PERIPHERAL BLOOD LYMPHOCYTES, Metabolic Activation: RAT, LIVER, S-9, PHENOBARBITONE) “inactive; negative”.
